Laboratory results published in patent US12570666B2, “Furoindazole derivatives” (Bayer Aktiengesellschaft, priority 2019, dated 2026).
pIC50: −log10 of the molar value.

target: T1, human GPR84 receptor (Homo sapiens, UniProt Q9NQS5); assay: cAMP HTRF assay for identification of cellular GPR84 antagonists; assay type: cell-based; settings: CHO-K1 cells stably expressing human GPR84; Forskolin + agonist 6-OAU (EC80); average or median values
T1 construct: frozen aliquots prepared by acCELLerate; host or cells: CHO-K1
Outline: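 Forskolin-stimulated CHO-K1 cells stably expressing human GPR84, agonist-suppressed cAMP measured by HTRF (665/620 ratio) after lysis. Compounds at 11 concentrations, 20 μM to 0.07 nM, duplicate; normalized to DMSO and no-agonist controls; IC50 by 4-parameter fit.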

T1 sequence (Q9NQS5 whole entry): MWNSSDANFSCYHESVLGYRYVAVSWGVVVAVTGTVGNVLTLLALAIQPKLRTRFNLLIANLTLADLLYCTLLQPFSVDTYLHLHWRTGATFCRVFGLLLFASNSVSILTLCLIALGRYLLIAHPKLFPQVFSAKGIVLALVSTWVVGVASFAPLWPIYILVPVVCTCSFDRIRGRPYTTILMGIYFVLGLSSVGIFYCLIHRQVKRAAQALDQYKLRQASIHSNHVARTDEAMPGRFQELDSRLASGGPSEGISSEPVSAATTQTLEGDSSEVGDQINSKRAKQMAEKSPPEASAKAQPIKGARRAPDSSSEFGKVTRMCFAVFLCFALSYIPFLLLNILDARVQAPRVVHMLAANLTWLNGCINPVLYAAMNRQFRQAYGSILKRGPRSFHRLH

| SMILES | pIC50 |
| --- | --- |
| CC1CCC(CNC(=O)c2oc3c(c2C(F)(F)F)-c2nn(CC4COCCO4)cc2CC3)O1 (single isomer, unassigned) [Example 224-1, 2-{[(2S)-1,4-dioxan-2-yl]methyl}-N-{[(2R or 2S,5R or 5S)-5-methyloxolan-2-yl]methyl}-8-(trifluoromethyl)-4,5-dihydro-2H-furo[2,3-g]indazole-7-carboxamide] | 7.80 |
| CC1CCC(CNC(=O)c2oc3c(c2C(F)(F)F)-c2nn(C[C@H]4COCCO4)cc2CC3)O1 (mixture of isomers) [Example 224, 2-{[(2S)-1,4-dioxan-2-yl]methyl}-N-{[(2±,5±)-5-methyloxolan-2-yl]methyl}-8-(trifluoromethyl)-4,5-dihydro-2H-furo[2,3-g]indazole-7-carboxamide] | 7.74 |
| Cc1c(C(=O)NCC2CCO2)oc2c1-c1nn(Cc3ccccn3)cc1CC2 (single isomer, unassigned) [Example 35-2] | 6.11 |
| Cc1c(C(=O)NC[C@@H]2COCCO2)oc2c1-c1nn(Cc3cncnc3)cc1CC2 [Example 86, N-[(2R)-1,4-dioxan-2-ylmethyl]-8-methyl-2-(pyrimidin-5-ylmethyl)-4,5-dihydro-2H-furo[2,3-g]indazole-7-carboxamide] | 6.74 |
| Cc1c(C(=O)NCc2cnoc2C2CC2)oc2c1-c1nn(Cc3ccccn3)cc1CC2 [Example 16, N-[(5-cyclopropyl-1,2-oxazol-4-yl)methyl]-8-methyl-2-(pyridin-2-ylmethyl)-4,5-dihydro-2H-furo[2,3-g]indazole-7-carboxamide] | 4.95 |
| CC1Cc2oc(C(=O)NC[C@@H]3COCCO3)c(C(F)(F)F)c2-c2nn(Cc3ccccn3)cc21 (mixture of isomers) [Example 250, (4±)-N-{[(2R)-1,4-dioxan-2-yl]methyl}-4-methyl-2-[(pyridin-2-yl)methyl]-8-(trifluoromethyl)-4,5-dihydro-2H-furo[2,3-g]indazole-7-carboxamide] | 7.77 |
| Cc1c(C(=O)NC[C@@H]2CCCO2)oc2c1-c1nn(CC3CCCCO3)cc1CC2 (mixture of isomers) [Example 190] | 6.62 |
| Cc1cccc(Cn2cc3c(n2)-c2c(oc(C(=O)NCC4CCCO4)c2C)CC3)n1 (single isomer, unassigned) [Example 66-2] | 6.18 |
| Cc1c(C(=O)NCC2CCC(C)O2)oc2c1-c1nn(C[C@H]3COCCO3)cc1C1(CC1)C2 (mixture of isomers) [Example 198] | 7.03 |
| Cc1c(C(=O)NC[C@H]2COCCO2)oc2c1-c1nn(CC3CC3)cc1C1(CC1)C2 [Example 130, 2′-(cyclopropylmethyl)-N-[(2S)-1,4-dioxan-2-ylmethyl]-8′-methyl-2′,5′-dihydrospiro[cyclopropane-1,4′-furo[2,3-g]indazole]-7′-carboxamide] | 5.89 |
| Cc1c(C(=O)NC[C@@H]2COCCO2)oc2c1-c1nn(CC3(F)COC3)cc1CC2 [Example 96, N-[(2R)-1,4-dioxan-2-ylmethyl]-2-[(3-fluorooxetan-3-yl)methyl]-8-methyl-4,5-dihydro-2H-furo[2,3-g]indazole-7-carboxamide] | 7.33 |
| Cc1c(C(=O)NC[C@@H]2CCCO2)oc2c1-c1nn(Cc3ccccn3)cc1C(C)(C)C2 [Example 148, 4,4,8-trimethyl-2-(pyridin-2-ylmethyl)-N-[(2S)-tetrahydrofuran-2-ylmethyl]-4,5-dihydro-2H-furo[2,3-g]indazole-7-carboxamide] | 7.46 |
| C[C@@H]1Cc2oc(C(=O)NC[C@@H]3CCCO3)c(C(F)(F)F)c2-c2nn(C[C@H]3COCCO3)cc21 (single isomer, unassigned) [Example 255-2, (4R or 4S)-2-{[(2S)-1,4-dioxan-2-yl]methyl}-4-methyl-N-{[(2S)-oxolan-2-yl]methyl}-8-(trifluoromethyl)-4,5-dihydro-2H-furo[2,3-g]indazole-7-carboxamide] | 7.80 |
| Cc1c(C(=O)NC[C@@H]2CCCO2)oc2c1-c1nn(CCN3CCN(C(=O)OC(C)(C)C)CC3)cc1CC2 [Example 141, tert-butyl 4-[2-(8-methyl-7-{[(2S)-tetrahydrofuran-2-ylmethyl]carbamoyl}-4,5-dihydro-2H-furo[2,3-g]indazol-2-yl)ethyl]piperazine-1-carboxylate] | 6.15 |
| CCc1ccc(Cn2cc3c(n2)-c2c(oc(C(=O)NC[C@@H]4COCCO4)c2C)CC3)cn1 [Example 187] | 7.40 |
| Cn1ccc(CNC(=O)c2oc3c(c2C(F)(F)F)-c2nn(Cc4ccccn4)cc2C2(CCC2)C3)n1 [Example 276, N-[(1-Methyl-1H-pyrazol-3-yl)methyl]-2′-(pyridin-2-ylmethyl)-8′-(trifluormethyl)-2′,5′-dihydrospiro[cyclobutan-1,4′-furo[2,3-g]indazol]-7′-carboxamide] | 6.81 |
| CC1Cc2oc(C(=O)NC[C@@H]3COCCO3)c(C(F)(F)F)c2-c2nn(C[C@H]3COCCO3)cc21 (single isomer, unassigned) [Example 254-1, (4R or 4S)-N-{[(2R)-1,4-dioxan-2-yl]methyl}-2-{[(2S)-1,4-dioxan-2-yl]methyl}-4-methyl-8-(trifluoromethyl)-4,5-dihydro-2H-furo[2,3-g]indazole-7-carboxamide] | 8.00 |

The remaining compounds from weak to strong by pIC50, led by results:

| pIC50 | SMILES |
| --- | --- |
| 5.00 | Cc1c(C(=O)NCc2cc(-c3ccccc3Cl)on2)oc2c1-c1nn(Cc3ccccn3)cc1CC2 [Example 17, N-{[5-(2-chlorophenyl)-1,2-oxazol-3-yl]methyl}-8-methyl-2-(pyridin-2-ylmethyl)-4,5-dihydro-2H-furo[2,3-g]indazole-7-carboxamide] |
| 5.19 | Cc1c(C(=O)NC[C@@H]2COCCO2)oc2c1-c1nn(CCN)cc1CC2 [Example 161, 2-(2-aminoethyl)-N-[(2R)-1,4-dioxan-2-ylmethyl]-8-methyl-4,5-dihydro-2H-furo[2,3-g]indazole-7-carboxamide] |
| 5.29 | Cc1c(C(=O)NCc2nnc[nH]2)oc2c1-c1nn(Cc3ccccn3)cc1CC2 [Example 20, 8-methyl-2-(pyridin-2-ylmethyl)-N-(4H-1,2,4-triazol-3-ylmethyl)-4,5-dihydro-2H-furo[2,3-g]indazole-7-carboxamide] |
| 5.45 | Cc1c(C(=O)N2CCCC2CN)oc2c1-c1nn(Cc3ccccn3)cc1CC2 (racemic) [Example 30, [(2R/S)-2-(aminomethyl)pyrrolidin-1-yl][8-methyl-2-(pyridin-2-ylmethyl)-4,5-dihydro-2H-furo[2,3-g]indazol-7-yl]methanone] |
| 5.59 | Cc1c(C(=O)NC[C@H]2OCC[C@H]2C)oc2c1-c1nn(Cc3ccccn3)cc1CC2 (racemic) [Example 177] |
| 5.80 | O=C(NCCc1c[nH]cn1)c1oc2c(c1C(F)(F)F)-c1nn(C[C@H]3COCCO3)cc1CC2 [Example 235, 2-[(2S)-1,4-Dioxan-2-ylmethyl]-N-[2-(1 H-imidazol-4-yl)ethyl]-8-(trifluormethyl)-4,5-dihydro-2H-furo[2,3-g]indazol-7-carboxamide] |
| 6.17 | Cc1c(C(=O)NC[C@H]2CCC3(COC3)O2)oc2c1-c1nn(C[C@H]3COCCO3)cc1C1(CC1)C2 (single isomer, unassigned) [Example 201-1] |
| 6.70 | Cc1c(C(=O)NC[C@@H]2CCCO2)oc2c1-c1nn(C[C@@H]3COCCO3)cc1CC2 [Example 87, 2-[(2R)-1,4-dioxan-2-ylmethyl]-8-methyl-N-[(2S)-tetrahydrofuran-2-ylmethyl]-4,5-dihydro-2H-furo[2,3-g]indazole-7-carboxamide] |
| 7.10 | Cc1c(C(=O)NC[C@@H]2CCCO2)oc2c1-c1nn(CCNC(=O)OC(C)(C)C)cc1CC2 [Example 139, tert-butyl [2-(8-methyl-7-{[(2S)-tetrahydrofuran-2-ylmethyl]carbamoyl}-4,5-dihydro-2H-furo[2,3-g]indazol-2-yl)ethyl]carbamate] |
| 7.19 | Cc1ccc(Cn2cc3c(n2)-c2c(oc(C(=O)NC[C@@H]4COCCO4)c2C)CC3)cn1 [Example 76, N-[(2R)-1,4-dioxan-2-ylmethyl]-8-methyl-2-[(6-methylpyridin-3-yl)methyl]-4,5-dihydro-2H-furo[2,3-g]indazole-7-carboxamide] |
| 7.21 | O=C(NC[C@@H]1CCCO1)c1oc2c(c1C(F)(F)F)-c1nn(CC3CCN(CC4CC4)CC3)cc1CC2 [Example 307, 2-{[1-(cyclopropylmethyl)piperidin-4-yl]methyl}-N-{[(2S)-oxolan-2-yl]methyl}-8-(trifluoromethyl)-4,5-dihydro-2H-furo[2,3-g]indazole-7-carboxamide] |
| 7.34 | CC1Cc2oc(C(=O)NC[C@@H]3COCCO3)c(C(F)(F)F)c2-c2nn(C[C@H]3COCCO3)cc21 (single isomer, unassigned) [Example 254-2, (4R or 4S)-N-{[(2R)-1,4-dioxan-2-yl]methyl}-2-{[(2S)-1,4-dioxan-2-yl]methyl}-4-methyl-8-(trifluoromethyl)-4,5-dihydro-2H-furo[2,3-g]indazole-7-carboxamide] |
| 7.38 | Cc1c(C(=O)NC[C@@H]2CCCO2)oc2c1-c1nn(CC3COc4ncccc4O3)cc1CC2 (mixture of isomers) [Example 52, 2-[(2R/S)-2,3-dihydro[1,4]dioxino[2,3-b]pyridin-2-ylmethyl]-8-methyl-N-[(2S)-tetrahydrofuran-2-ylmethyl]-4,5-dihydro-2H-furo[2,3-g]indazole-7-carboxamide] |
| 7.54 | O=C(NC[C@@H]1COCCO1)c1oc2c(c1C(F)(F)F)-c1nn(CC3CCOCC3)cc1CC2 [Example 242, N-{[(2R)-1,4-dioxan-2-yl]methyl}-2-[(oxan-4-yl)methyl]-8-(trifluoromethyl)-4,5-dihydro-2H-furo[2,3-g]indazole-7-carboxamide] |
| 8.22 | Cc1cnc(CNC(=O)c2oc3c(c2C(F)(F)F)-c2nn(C[C@H]4COCCO4)cc2[C@H](C)C3)nc1 (single isomer, unassigned) [Example 303, (4R or 4S)-2-{[(2S)-1,4-dioxan-2-yl]methyl}-4-methyl-N-[(5-methylpyrimidin-2-yl)methyl]-8-(trifluoromethyl)-4,5-dihydro-2H-furo[2,3-g]indazole-7-carboxamide] |
